Reference: patent US10781171B2, “Substituted pyrrolidines as G-protein coupled receptor 43 agonists” (Epics Therapeutics, priority 2009, dated 2020)

System: ob/ob mice
Test: Oral glucose tolerance test (OGTT) in ob/ob mice
Assay type: in vivo, mouse
Details: blood glucose AUC -15 to 120 min in OGTT, 50 mg/kg bi-daily for 28 days
Description: Ob/ob or obese mice are leptin-deficient mice that eat excessively and become profoundly obese, hyperinsulinemic and hyperglycemic. It is an animal model of type II diabetes. Such model can be used for oral glucose tolerance tests (OGTTs). A total of sixteen (16) male ob/ob mice (6 weeks of age) were obtained from Harlan. Upon arrival to the animal unit, mice were housed 4 per cage in rodent cages mounted with feeders containing regular chow. The mice were put in a 12/12h light-dark cycle (light from 0600-1800 h) with controlled temperature conditions (22-24° C.). Fed blood glucose and body-weight was measured on day −2 in the morning between 08:00 AM and 09:00 AM. Animals were randomized into 2 groups according to fed glucose levels (on day −2). […]
Day 1 is the first day of dosing. […] At −15 min, blood glucose was measured (using a glucose analyzer) and animals were dosed with compounds of the invention or vehicle. At time point 0, blood glucose was measured again and glucose was administered by oral gavage (1 g/kg glucose). The blood glucose was then measured at time points 15, 30, 45, 60 and 120 minutes. […] The percentages of AUC inhibition induced by compounds of the invention were calculated as follows: % of AUC inhibition: [1-(AUC compound/AUC vehicule)]*100.

For `COc1ccccc1-c1ccc(C(=O)N2[C@@H](c3ccccc3Cl)CC[C@H]2C(=O)O)cc1` [Compound 1, (2S,5R)-5-(2-chlorophenyl)-1-(2′-methoxy-[1,1′-biphenyl]-4-carbonyl)pyrrolidine-2-carboxylic acid], the “% of AUC inhibition” value was 40%.
